Test results taken from patent publication US9493472B2, “Substituted benzoxazoles” (BAYER PHARMA AKTIENGESELLSCHAFT, priority 2013, dated 2016).

What was measured:
[1] = system: plasma (prothrombin time); experiment: Anticoagulatory activity: prothrombin time (PT) in plasma; details: 37° C., 3 minutes incubation, plasma species not given, in some cases means, read-out: IC50 [μM] (concentration of test substance which effects a doubling of the prothrombin time)
Protocol: The anticoagulatory activity of the test substances is determined in vitro in human plasma, rabbit plasma and rat plasma. To this end, blood is drawn off in a mixing ratio of sodium citrate/blood of 1:9 using a 0.11 molar sodium citrate solution as receiver. Immediately after the blood has been drawn off, it is mixed thoroughly and centrifuged at about 4000 g for 15 minutes. The supernatant is pipetted off.
The prothrombin time (PT, synonyms: thromboplastin time, quick test) is determined in the presence of varying concentrations of test substance or the corresponding solvent using a commercial test kit (Neoplastin® from Boehringer Mannheim or Hemoliance® RecombiPlastin from Instrumentation Laboratory). The test compounds are incubated with the plasma at 37° C. for 3 minutes. Coagulation is then started by addition of thromboplastin, and the time when coagulation occurs is determined. The concentration of test substance which effects a doubling of the prothrombin time is determined Representative activity data from this test are given in Table 3 below (in some cases as means of individual determinations): […]

New Zealand rabbits = experiment: Rabbit venous reperfusion and bleeding model (combi model rabbit); assay type: in vivo; details: for Increase in reperfusion (blood flow/time area): on top of tissue plasminogen activator; for Significance of increase in reperfusion: p > 0.05
Protocol: Male New Zealand rabbits having a weight of 2.8-3.4 kg are anaesthetized using an intramuscular ketamine/Rompun bole injection. The animal is then shaved at the places needed for the surgery. A continuous infusion of anaesthetic (ketamine/Rompun) is administered via the left auricular vein using an indwelling catheter. Left and right femoral vein and right femoral artery are catheterized with a polyethylene tube (PESO). The jugular vein is then carefully exposed such that the vessel is stressed and damaged as little as possible and no more fat is present at the vessel. Using a suitable apparatus for measuring flow (Powerlab, Transonic TS420 incl. flow probe head), the flow in the jugular vein is recorded (Lab Chart Software). Prior to the start of the experiment, twice 1.4 ml of citrated blood are removed from the rabbit via the femoral artery, and the basal bleeding time at the rim of the ear is determined. Once there has been a constant flow from the jugular vein for 10 min (complete regeneration of the vessel after preparation), a 2 cm section of the vein is pinched off using small vessel clamps. In a Petri dish, the citrated blood removed earlier (300 μl) is mixed with calcium chloride (0.25 M, 90 μl) and thrombin (25 U/ml, 60 μl). 180 μl of the blood/calcium chloride/thrombin mixture are quickly drawn into a 1 ml syringe and, via a 27G cannula, injected into the pinched-off segment of the vessel. The injection site is pinched off with a pair of tweezers for one minute so that no blood can escape. Two minutes after injection of the thrombus, the test substance is administered as bole and infusion via the left femoral vein catheter. 14 minutes after the thrombus injection, tissue plasminogen activator is administered as bole and infusion (Actilyse®, 20 μg/kg bole & 150 μg/kg/h infusion) at the right femoral vein. 15 minutes after thrombus injection, the stasis is opened and the flow probe head is attached. Blood flow in the vessel is recorded for 120 minutes, and the vessel is kept moist with warm 0.9% aqueous sodium chloride solution during this time. After 105 minutes of reperfusion, the ear bleeding time is determined again. At the end of the experiment, after 120 minutes of reperfusion, 1.4 ml of citrated blood are removed, the animal is sacrificed painlessly by a bole injection of 1.5 ml of T61 and the weight of the thrombus in the jugular vein is determined. The blood removed before and after the experiment is used to obtain plasma and to determine the ex vivo coagulation time.
The area obtainable with tissue plasminogen activator alone is subtracted from the area achieved using the respective substance or dosage. The resulting area is a measure of the improvement of reperfusion by the test substance (Table 4).

thrombin [2] = target: T1, thrombin (Homo sapiens (Human), UniProt P00734); experiment: Measurement of the thrombin inhibition in buffer; assay type: biochemical; details: human thrombin 0.06 nmol/l, Tris buffer pH 7.4, 22° C.; substrate Boc-Asp(OBzl)-Pro-Arg-AMC; in some cases means
Protocol: To determine the thrombin inhibition of the substances listed above, a biochemical test system is constructed in which the conversion of a thrombin substrate is used for determining the enzymatic activity of human thrombin. Here, thrombin cleaves aminomethylcoumarin, which is measured fluorescently, from the peptic substrate. The determinations are carried out in microtitre plates.
Substances to be tested are dissolved in various concentrations in dimethyl sulphoxide and incubated for 15 min with human thrombin (0.06 nmol/l dissolved in 50 mmol/l of Tris buffer [C,C,C-tris(hydroxymethyl)aminomethane], 100 mmol/l of sodium chloride, 0.1% BSA [bovine serum albumin], pH 7.4) at 22° C. The substrate (5 μmol/l Boc-Asp(OBzl)-Pro-Arg-AMC from Bachem) is then added. After 30 min of incubation, the sample is excited at a wavelength of 360 nm and the emission is measured at 460 nm. The measured emissions of the test batches with test substance are compared to the control batches without test substance (only dimethyl sulphoxide instead of test substance in dimethyl sulphoxide) and the IC50 values are calculated from the concentration/activity relationships.

thrombin [3] = target: T1, thrombin; experiment: Thrombin-inhibitory activity in plasma samples (ecarin-activated); assay type: biochemical; details: citrate plasma, prothrombinase activated by ecarin, fluorogenic thrombin substrate; in some cases means; read-out: IC50 [nM] thrombin inhibition in plasma samples
Protocol: To determine the inhibition of thrombin in plasma samples, plasma […] is activated by ecarin. Thrombin activity and/or its inhibition by potential inhibitors is/are then measured fluorenscently by addition of a substrate.
The substances to be tested are dissolved in various concentrations in dimethyl sulphoxide and diluted with water. In white 96-well flat-bottomed plates, 20 μl of substance dilution are mixed with 20 μl of ecarin solution (ecarin reagent, from Sigma E-0504, final concentration 20 mU per reaction) in Ca buffer (200 mM Hepes+560 mM sodium chloride+10 mM calcium chloride+0.4% PEG) or with 20 μl of Ca buffer (as unstimulated control). Furthermore, 20 μl of fluorogenic thrombin substrate (from Bachem I-1120, final concentration 50 μmol/l) and 20 μl of citrate plasma (from Octapharma) are added, and the mixture is homogenized well. The plate is measured in a SpectraFluorplus Reader using a 360 nm excitation filter and a 465 nm emission filter every minute over 20 minutes.

[4] = bole 0.33 mg/kg, continuous infusion 0.43 mg/kg/h
[5] = bole 0.08 mg/kg, continuous infusion 0.09 mg/kg/h

SMILES | IC50 [1] | IC50 (thrombin [2]) | IC50 (thrombin [3]) | Increase in reperfusion (blood flow/time area) (New Zealand rabbits; [4]) | Significance of increase in reperfusion (New Zealand rabbits; [4]) | Increase in reperfusion (blood flow/time area) (New Zealand rabbits; [5]) | Significance of increase in reperfusion (New Zealand rabbits; [5])
COc1cc(C(=O)N2CC(C)(CC(C)O)OC[C@H]2C)cc2nc(NC(CF)c3cccc(Cl)c3)oc12 (stereo partly drawn) [Example 12, (2-{[1-(3-Chlorophenyl)-2-fluoroethyl]amino}-7-methoxy-1,3-benzoxazol-5-yl)[(5R)-2-(2-hydroxypropyl)-2,5-dimethylmorpholin-4-yl]methanone] | 1.5 µM | 0.1 nM | 14.7 nM | – | – | – | –
COc1cc(C(=O)N2CC(C)OC[C@]23C[C@H](O)C3)cc2nc(NC(CF)c3cccc(Cl)c3)oc12 (stereo partly drawn) [Example 21, (2-{[1-(3-Chlorophenyl)-2-fluoroethyl]amino}-7-methoxy-1,3-benzoxazol-5-yl)(cis-2-hydroxy-7-methyl-8-oxa-5-azaspiro[3.5]non-5-yl)methanone] | 1.3 µM | 1.4 nM | 6.2 nM | – | – | – | –
O=C(NC[C@H]1CN(c2ccc(N3CCOCC3=O)cc2)C(=O)O1)c1ccc(Cl)s1 [rivaroxaban, 5-chloro-N-({(5S)-2-oxo-3-[4-(3-oxo-4-morpholinyl)-phenyl]-1,3-oxazolidin-5-yl}methyl)-2-thiophenecarboxamide, reference compound] | – | – | – | – | – | 13.0% | insignificant effect

Now from value to compound, other results behind:

IC50 [1] | IC50 (thrombin [2]) | IC50 (thrombin [3]) | SMILES | Increase in reperfusion (blood flow/time area) (New Zealand rabbits; [4]) | Significance of increase in reperfusion (New Zealand rabbits; [4]) | Increase in reperfusion (blood flow/time area) (New Zealand rabbits; [5]) | Significance of increase in reperfusion (New Zealand rabbits; [5])
1.1 µM | – | – | COc1cc(C(=O)N2CC(C)OC[C@@H]2CCO)cc2nc(NC(CF)c3cccc(Cl)c3)oc12 (single isomer, unassigned) [Example 15] | 12.2% | insignificant effect | – | –
1.1 µM | 4.3 nM | 4.7 nM | COc1cc(C(=O)N2CC(C)(C)OC[C@H]2CCO)cc2nc(NC(CF)c3cccc(Cl)c3)oc12 (stereo partly drawn) [Example 25, (2-{[1-(3-Chlorophenyl)-2-fluoroethyl]amino}-7-methoxy-0,2-benzoxazol-5-yl)[(5R)-5-(2-hydroxyethyl)-2,2-dimethylmorpholin-4-yl]methanone] | – | – | – | –
